The values that follow come from US20110045082A1, “AGGLOMERATES BY CRYSTALLISATION” (priority 1999, published 2011).

Common to all, as to type: physicochemical
A short description of series [1]: Average diameter of agglomerates. The following applies: agglomerates as obtained after drying.
Series [2] in a line: Loose bulk density of the powder.
Series [3] in a line: Tapped bulk density of the powder.
The nature of series [4]: Compressibility of the powder.
A short description of series [5]: Particle size distribution.
The mark [6] stands for this setting: Table 1, agglomerated vs needle form.
Where [7] appears, read: agitator 3000 RPM, 0.9 mm nozzle.
Where [8] appears, read: High flow (solution 15 l/h, acetone 312 l/h).
The mark [9] stands for this setting: Low flow (flows decreased by a factor 2).

On to `O=C(O)[C@H]1/C(=C/CO)O[C@@H]2CC(=O)N21` [Example 5, potassium clavulanate], for which the average diameter in series [1] is listed as 50-250 μm.
In the case of `O=C(O)[C@H]1/C(=C/CO)O[C@@H]2CC(=O)N21` [Agglomerates of potassium clavulanate, potassium clavulanate], in series [1] (listed as Example 8), the average diameter was 40-200 μm. Moreover, in series [2] (setting [6]), the Loose bulk density turned out to be 0.49 g/mL. In series [3] (setting [6]), this molecule came in with a Tapped bulk density of 0.68 g/mL. Also, the Compressibility in series [4] (setting [6]) was 28%.
Turning to `O=C(O)[C@H]1/C(=C/CO)O[C@@H]2CC(=O)N21` [Example 9, potassium clavulanate], the Loose bulk density in series [2] (setting [7]) is 0.22 g/mL. The Tapped bulk density in series [3] (setting [7]) stood at 0.30 g/mL. In addition, in series [5] (Table 2, 3000 RPM), the “particle size distribution 75-150 μm” value is 43.3 volume %, the “particle size distribution 150-250 μm” value turned out to be 8 volume %, the “particle size distribution 250-500 μm” value is on record as 1 volume % and the “particle size distribution 500-710 μm” value is 0.2 volume %. Further, in series [5] (Table 2, 3000 RPM), the “particle size distribution <75 μm” value is recorded as 46.3 volume % and the “particle size distribution >710 μm” value stood at 0.1 volume %. This molecule also returned a Compressibility in series [4] (setting [7]) of 27%.
In series [2] (Nozzle diameter 0.9 mm), potassium clavulanate [Example 12] showed a Loose bulk density of 0.22 g/mL. Also, in series [2] (Nozzle diameter 1.2 mm), the Loose bulk density was found to be 0.36 g/mL. For the same molecule, in series [3] (Nozzle diameter 0.9 mm), the Tapped bulk density stood at 0.3 g/mL. Besides, in series [3] (Nozzle diameter 1.2 mm), the Tapped bulk density was determined as 0.44 g/mL. Moreover, in series [5] (Nozzle diameter 0.9 mm), the “particle size distribution 75-150 μm” value is 43.3 volume %, the “particle size distribution 150-250 μm” value was 8 volume %, the “particle size distribution 250-500 μm” value amounted to 1 volume % and the “particle size distribution 500-710 μm” value was 0.2 volume %. In series [5] (Nozzle diameter 0.9 mm), the “particle size distribution <75 μm” value stood at 46.3 volume % and the “particle size distribution >710 μm” value is on record as 0.1 volume %. Also, in series [5] (Nozzle diameter 1.2 mm), the “particle size distribution 75-150 μm” value came out at 50.6 volume %, the “particle size distribution 150-250 μm” value is on record as 31.3 volume %, the “particle size distribution 250-500 μm” value was found to be 1.9 volume % and the “particle size distribution 500-710 μm” value worked out at 0 volume %. In addition, in series [5] (Nozzle diameter 1.2 mm), the “particle size distribution <75 μm” value was found to be 15.9 volume % and the “particle size distribution >710 μm” value stood at 0.3 volume %.
With `O=C(O)[C@H]1/C(=C/CO)O[C@@H]2CC(=O)N21` [Example 4, potassium clavulanate], the average diameter in series [1] is given as 500-1000 μm.
Still for that read-out and setting: for `O=C(O)[C@H]1/C(=C/CO)O[C@@H]2CC(=O)N21` [Example 3, potassium clavulanate] the value was 1000 μm; for `O=C(O)[C@H]1/C(=C/CO)O[C@@H]2CC(=O)N21` [Example 1, potassium clavulanate], 100-1000 μm; for `O=C(O)[C@H]1/C(=C/CO)O[C@@H]2CC(=O)N21` [Example 6, potassium clavulanate], 10-200 μm.
In turn, `O=C(O)[C@H]1/C(=C/CO)O[C@@H]2CC(=O)N21` [Needles of Potassium clavulanate, potassium clavulanate, reference compound] came in with a Loose bulk density in series [2] (setting [6]) of 0.18 g/mL. Besides, in series [3] (setting [6]), the Tapped bulk density was found to be 0.36 g/mL. The Compressibility in series [4] (setting [6]) came out at 50%.
Take `O=C(O)[C@H]1/C(=C/CO)O[C@@H]2CC(=O)N21` [Example 7, potassium clavulanate]: the average diameter in series [1] is on record as 500-1500 μm.
`O=C(O)[C@H]1/C(=C/CO)O[C@@H]2CC(=O)N21` [Example 11, potassium clavulanate]: in series [2] (setting [8]), the Loose bulk density was found to be 0.27 g/mL. In series [2] (setting [9]), this molecule displayed a Loose bulk density of 0.35 g/mL. Moreover, the Tapped bulk density in series [3] (setting [8]) is 0.36 g/mL. Also, in series [3] (setting [9]), the Tapped bulk density was found to be 0.44 g/mL. In series [5] (High flow), the “particle size distribution 75-150 μm” value is recorded as 41.2 volume %, the “particle size distribution 150-250 μm” value was 9.3 volume %, the “particle size distribution 250-500 μm” value amounted to 0.3 volume % and the “particle size distribution 500-710 μm” value is on record as 0 volume %. Also, in series [5] (High flow), the “particle size distribution <75 μm” value was found to be 48.7 volume % and the “particle size distribution >710 μm” value amounted to 0 volume %. Moreover, in series [5] (Low flow), the “particle size distribution 75-150 μm” value is 50.4 volume %, the “particle size distribution 150-250 μm” value is recorded as 1.1 volume %, the “particle size distribution 250-500 μm” value is 0.6 volume % and the “particle size distribution 500-710 μm” value was 0.4 volume %. For the same molecule, in series [5] (Low flow), the “particle size distribution <75 μm” value is reported as 48.8 volume % and the “particle size distribution >710 μm” value is recorded as 0 volume %. In addition, in series [4] (setting [8]), the Compressibility is 25%. Besides, the Compressibility in series [4] (setting [9]) is 20%.
Regarding `O=C(O)[C@H]1/C(=C/CO)O[C@@H]2CC(=O)N21` [Example 2, potassium clavulanate], the average diameter in series [1] was 500-1500 μm.
`O=C(O)[C@H]1/C(=C/CO)O[C@@H]2CC(=O)N21` [Example 10, potassium clavulanate] returned a Loose bulk density in series [2] (agitator speed 1000 RPM) of 0.39 g/mL. The molecule also gave a Loose bulk density in series [2] (agitator speed 2000 RPM) of 0.42 g/mL. The Tapped bulk density in series [3] (agitator speed 1000 RPM) was 0.44 g/mL. The molecule also came in with a Tapped bulk density in series [3] (agitator speed 2000 RPM) of 0.47 g/mL. In series [5] (agitator speed 1000 RPM), the “particle size distribution 75-150 μm” value is listed as 6.5 volume %, the “particle size distribution 150-250 μm” value is given as 20.7 volume %, the “particle size distribution 250-500 μm” value turned out to be 60.8 volume % and the “particle size distribution 500-710 μm” value was 6.1 volume %. In addition, in series [5] (agitator speed 1000 RPM), the “particle size distribution <75 μm” value is given as 5.1 volume % and the “particle size distribution >710 μm” value is 0.2 volume %. Besides, in series [5] (agitator speed 2000 RPM), the “particle size distribution 75-150 μm” value amounted to 2.4 volume %, the “particle size distribution 150-250 μm” value is reported as 9.5 volume %, the “particle size distribution 250-500 μm” value came to 57.3 volume % and the “particle size distribution 500-710 μm” value was found to be 27 volume %. In series [5] (agitator speed 2000 RPM), the “particle size distribution <75 μm” value turned out to be 1.8 volume % and the “particle size distribution >710 μm” value came out at 1.5 volume %. Further, the Compressibility in series [4] (agitator speed 1000 RPM) stood at 11%. Also, the Compressibility in series [4] (agitator speed 2000 RPM) stood at 11%.
